Measurements as given in ChEMBL document CHEMBL1909046, “DrugMatrix in vitro pharmacology data”.
pIC50: −log10 of the molar value.

What was measured:
Thromboxane-A synthase = biological target: T1, Thromboxane-A synthase (Homo sapiens, UniProt P24557); test: biochemical; assay type: tissue-based, Platelet; conditions: platelet;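 note: enzyme inhibition assay with PGH2 supplied as substrate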
T1 sequence (P24557 whole entry): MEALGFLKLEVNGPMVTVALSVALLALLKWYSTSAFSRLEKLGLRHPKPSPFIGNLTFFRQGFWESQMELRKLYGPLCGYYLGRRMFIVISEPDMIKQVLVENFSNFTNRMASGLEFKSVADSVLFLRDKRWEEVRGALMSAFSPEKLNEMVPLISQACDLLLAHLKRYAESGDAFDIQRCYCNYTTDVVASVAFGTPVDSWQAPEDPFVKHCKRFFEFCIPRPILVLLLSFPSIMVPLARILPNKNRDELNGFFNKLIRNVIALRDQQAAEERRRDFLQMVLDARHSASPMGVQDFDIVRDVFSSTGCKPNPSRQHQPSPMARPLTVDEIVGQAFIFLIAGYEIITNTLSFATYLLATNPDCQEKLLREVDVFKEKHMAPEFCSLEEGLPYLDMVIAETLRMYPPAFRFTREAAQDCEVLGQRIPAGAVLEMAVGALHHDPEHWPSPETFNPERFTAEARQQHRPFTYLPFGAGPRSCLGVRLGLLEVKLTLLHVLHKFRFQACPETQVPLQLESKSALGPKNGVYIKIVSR

[1] = biological target: T2, Polyunsaturated fatty acid lipoxygenase ALOX15 (Oryctolagus cuniculus, UniProt P12530); test: biochemical; assay type: tissue-based, Reticulocytes; conditions: for IC50 / Ki: reticulocytes;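 for all read-outs here: inhibition of 15-lipoxygenase enzyme activity measured with linoleic acid as the substrate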
T2 sequence (P12530 whole entry): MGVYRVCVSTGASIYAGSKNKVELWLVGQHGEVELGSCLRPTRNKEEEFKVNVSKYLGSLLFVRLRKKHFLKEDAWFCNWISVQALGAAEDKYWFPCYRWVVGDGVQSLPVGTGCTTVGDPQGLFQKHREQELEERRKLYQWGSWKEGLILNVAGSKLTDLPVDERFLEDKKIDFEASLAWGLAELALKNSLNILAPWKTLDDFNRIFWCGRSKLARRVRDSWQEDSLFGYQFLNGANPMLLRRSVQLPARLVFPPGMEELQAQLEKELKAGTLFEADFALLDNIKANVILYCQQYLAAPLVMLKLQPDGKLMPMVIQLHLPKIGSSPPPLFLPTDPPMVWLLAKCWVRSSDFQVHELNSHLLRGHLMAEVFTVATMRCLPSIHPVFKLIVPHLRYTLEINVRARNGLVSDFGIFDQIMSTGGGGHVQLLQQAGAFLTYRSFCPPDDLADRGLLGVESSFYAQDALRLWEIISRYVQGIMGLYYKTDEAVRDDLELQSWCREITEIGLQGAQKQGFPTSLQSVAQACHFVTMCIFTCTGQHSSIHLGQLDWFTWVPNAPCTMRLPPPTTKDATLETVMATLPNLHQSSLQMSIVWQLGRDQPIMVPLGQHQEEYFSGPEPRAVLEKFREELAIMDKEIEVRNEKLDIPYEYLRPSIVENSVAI

Nitric oxide synthase 1 = Nitric oxide synthase 1 (Rattus norvegicus, UniProt P29476); assay type: tissue-based, Cerebellum
[2] = biological target: T3, Receptor-type tyrosine-protein phosphatase C (Homo sapiens, UniProt P08575); parameters: species or system Escherichia coli;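 note: inhibition of CD45 enzyme activity measured using DiFMUP as substrate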
T3 sequence (P08575 whole entry): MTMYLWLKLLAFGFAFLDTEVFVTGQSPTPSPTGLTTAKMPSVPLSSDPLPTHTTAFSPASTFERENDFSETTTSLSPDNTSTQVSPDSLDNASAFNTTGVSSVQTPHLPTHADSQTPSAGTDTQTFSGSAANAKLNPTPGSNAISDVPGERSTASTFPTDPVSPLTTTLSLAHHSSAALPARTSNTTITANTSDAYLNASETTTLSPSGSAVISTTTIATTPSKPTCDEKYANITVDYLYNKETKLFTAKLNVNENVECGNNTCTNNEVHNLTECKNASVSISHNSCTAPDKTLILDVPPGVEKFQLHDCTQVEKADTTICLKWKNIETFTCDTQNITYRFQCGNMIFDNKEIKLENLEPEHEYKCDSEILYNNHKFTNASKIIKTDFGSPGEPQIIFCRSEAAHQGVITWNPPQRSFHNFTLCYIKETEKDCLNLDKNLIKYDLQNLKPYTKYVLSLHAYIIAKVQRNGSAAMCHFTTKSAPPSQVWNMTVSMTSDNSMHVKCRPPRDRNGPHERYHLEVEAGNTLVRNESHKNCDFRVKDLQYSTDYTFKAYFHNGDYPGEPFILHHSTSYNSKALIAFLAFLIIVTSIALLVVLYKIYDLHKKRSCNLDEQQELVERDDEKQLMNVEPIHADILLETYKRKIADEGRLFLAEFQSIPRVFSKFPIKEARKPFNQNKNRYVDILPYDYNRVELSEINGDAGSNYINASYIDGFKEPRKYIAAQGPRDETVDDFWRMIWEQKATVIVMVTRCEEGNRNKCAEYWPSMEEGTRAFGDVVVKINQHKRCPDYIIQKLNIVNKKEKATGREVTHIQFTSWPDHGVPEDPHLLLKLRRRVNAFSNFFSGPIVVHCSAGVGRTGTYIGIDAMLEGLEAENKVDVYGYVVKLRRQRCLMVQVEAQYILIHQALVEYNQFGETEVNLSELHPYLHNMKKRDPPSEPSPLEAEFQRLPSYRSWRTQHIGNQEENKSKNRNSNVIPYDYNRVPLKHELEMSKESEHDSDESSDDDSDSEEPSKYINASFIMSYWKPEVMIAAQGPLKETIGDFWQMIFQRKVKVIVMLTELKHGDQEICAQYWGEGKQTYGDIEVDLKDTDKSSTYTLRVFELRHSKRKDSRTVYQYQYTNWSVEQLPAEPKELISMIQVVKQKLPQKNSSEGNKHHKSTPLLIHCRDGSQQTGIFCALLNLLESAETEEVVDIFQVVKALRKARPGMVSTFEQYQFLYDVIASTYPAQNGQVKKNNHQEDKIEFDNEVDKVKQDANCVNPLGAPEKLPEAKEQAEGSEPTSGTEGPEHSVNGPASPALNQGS
Note: in other assays of this panel Not Active means under 50% inhibition at 10 µM.

Nitric oxide synthase 1, sequence (P29476 whole entry): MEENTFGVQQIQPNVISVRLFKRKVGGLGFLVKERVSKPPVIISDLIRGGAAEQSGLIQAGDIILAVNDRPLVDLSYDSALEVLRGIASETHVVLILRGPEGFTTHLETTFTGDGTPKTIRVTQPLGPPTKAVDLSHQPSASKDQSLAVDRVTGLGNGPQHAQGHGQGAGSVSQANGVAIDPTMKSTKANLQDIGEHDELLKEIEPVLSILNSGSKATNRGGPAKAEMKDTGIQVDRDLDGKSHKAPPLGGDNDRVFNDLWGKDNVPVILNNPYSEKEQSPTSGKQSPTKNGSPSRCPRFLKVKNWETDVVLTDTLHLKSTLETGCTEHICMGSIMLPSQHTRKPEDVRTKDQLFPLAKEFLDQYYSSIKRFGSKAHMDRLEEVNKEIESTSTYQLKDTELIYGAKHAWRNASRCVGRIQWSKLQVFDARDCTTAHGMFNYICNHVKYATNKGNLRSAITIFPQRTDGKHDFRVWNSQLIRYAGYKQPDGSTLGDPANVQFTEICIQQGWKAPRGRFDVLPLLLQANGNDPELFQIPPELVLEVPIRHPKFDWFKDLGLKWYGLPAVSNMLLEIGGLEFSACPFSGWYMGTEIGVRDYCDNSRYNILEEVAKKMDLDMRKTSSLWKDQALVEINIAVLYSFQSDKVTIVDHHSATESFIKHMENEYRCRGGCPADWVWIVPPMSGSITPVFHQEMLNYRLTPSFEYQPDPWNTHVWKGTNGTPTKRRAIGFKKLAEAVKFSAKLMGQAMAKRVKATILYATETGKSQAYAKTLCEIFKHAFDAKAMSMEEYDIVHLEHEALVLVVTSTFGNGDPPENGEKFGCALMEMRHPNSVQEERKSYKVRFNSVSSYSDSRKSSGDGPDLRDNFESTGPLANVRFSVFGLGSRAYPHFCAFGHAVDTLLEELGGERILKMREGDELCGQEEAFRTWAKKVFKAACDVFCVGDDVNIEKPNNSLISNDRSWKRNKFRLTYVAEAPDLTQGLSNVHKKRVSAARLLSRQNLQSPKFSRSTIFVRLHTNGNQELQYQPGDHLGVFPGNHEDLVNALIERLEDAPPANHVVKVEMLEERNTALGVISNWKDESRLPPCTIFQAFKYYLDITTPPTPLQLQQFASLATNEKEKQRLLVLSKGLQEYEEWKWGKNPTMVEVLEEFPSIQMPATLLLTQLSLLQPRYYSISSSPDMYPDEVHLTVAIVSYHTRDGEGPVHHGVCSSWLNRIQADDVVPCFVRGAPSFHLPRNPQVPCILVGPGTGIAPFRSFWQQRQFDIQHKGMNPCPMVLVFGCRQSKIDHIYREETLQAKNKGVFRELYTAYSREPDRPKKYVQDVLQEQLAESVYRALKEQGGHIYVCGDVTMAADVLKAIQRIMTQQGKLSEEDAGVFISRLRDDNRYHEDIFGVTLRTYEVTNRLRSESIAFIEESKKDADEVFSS

Compound: Sc1ncnc2nc[nH]c12 [MERCAPTOPURINE ANHYDROUS]
- IC50 (Thromboxane-A synthase): Not Active
- IC50 [1]: Not Active
- IC50 (Nitric oxide synthase 1): Not Active
- IC50 [2]: Not Active

Compound: C[C@](N)(Cc1ccc(O)c(O)c1)C(=O)O [METHYLDOPA]
- IC50 (Thromboxane-A synthase): Not Active
- pIC50 ([1]; read-out: IC50): 5.67
- IC50 (Nitric oxide synthase 1): Not Active
- IC50 [2]: Not Active

Compound: C[C@]12CCC(=O)C=C1CC[C@@H]1[C@@H]2CC[C@@]2(C)[C@H]1CC[C@]2(C)O [METHYLTESTOSTERONE]
- IC50 (Thromboxane-A synthase): Not Active
- IC50 [1]: Not Active
- IC50 (Nitric oxide synthase 1): Not Active
- IC50 [2]: Not Active

Compound: Cc1ccccc1N1C(=O)c2cc(S(N)(=O)=O)c(Cl)cc2NC1C (configuration not stated) [METOLAZONE]
- IC50 (Thromboxane-A synthase): Not Active
- IC50 [1]: Not Active
- IC50 (Nitric oxide synthase 1): Not Active
- IC50 [2]: Not Active

Compound: COCCc1ccc(OCC(O)CNC(C)C)cc1 (configuration not stated) [METOPROLOL]
- IC50 (Thromboxane-A synthase): Not Active
- IC50 [1]: Not Active
- IC50 (Nitric oxide synthase 1): Not Active
- IC50 [2]: Not Active

Compound: CCn1cc(C(=O)O)c(=O)c2cc(F)c(N3CCNCC3)cc21 [NORFLOXACIN]
- IC50 (Thromboxane-A synthase): Not Active
- IC50 [1]: Not Active
- IC50 (Nitric oxide synthase 1): Not Active
- IC50 [2]: Not Active

Compound: NC1=NC(=O)C(c2ccccc2)O1 (configuration not stated) [PEMOLINE]
- IC50 (Thromboxane-A synthase): Not Active
- IC50 [1]: Not Active
- IC50 (Nitric oxide synthase 1): Not Active
- IC50 [2]: Not Active

Compound: Nc1nc2c(ncn2CCC(CO)CO)c(=O)[nH]1 [PENCICLOVIR]
- IC50 (Thromboxane-A synthase): Not Active
- IC50 [1]: Not Active
- IC50 (Nitric oxide synthase 1): Not Active
- IC50 [2]: Not Active

Compound: C=C(C)C1(O)OC(=O)C=C1OC (configuration not stated) [PENICILLIC ACID]
- IC50 (Thromboxane-A synthase): Not Active
- IC50 [1]: Not Active
- IC50 (Nitric oxide synthase 1): Not Active
- IC50 [2]: Not Active

Compound: CC1(C)S[C@@H]2[C@H](NC(=O)Cc3ccccc3)C(=O)N2[C@H]1C(=O)O [PENICILLIN G]
- IC50 (Thromboxane-A synthase): Not Active
- IC50 [1]: Not Active
- IC50 (Nitric oxide synthase 1): Not Active
- IC50 [2]: Not Active

Compound: CCCN1C[C@H](CSC)C[C@@H]2c3cccc4[nH]cc(c34)C[C@H]21 [PERGOLIDE]
- IC50 (Thromboxane-A synthase): Not Active
- IC50 [1]: Not Active
- IC50 (Nitric oxide synthase 1): Not Active
- IC50 [2]: Not Active

Compound: C1CCC(C(CC2CCCCN2)C2CCCCC2)CC1 (configuration not stated) [PERHEXILINE]
- IC50 (Thromboxane-A synthase): Not Active
- IC50 [1]: Not Active
- IC50 (Nitric oxide synthase 1): Not Active
- IC50 [2]: Not Active

Compound: CCOc1ccc(NC(C)=O)cc1 [PHENACETIN]
- IC50 (Thromboxane-A synthase): Not Active
- IC50 [1]: Not Active
- IC50 (Nitric oxide synthase 1): Not Active
- IC50 [2]: Not Active

Compound: Cc1ccc(N(CC2=NCCN2)c2cccc(O)c2)cc1 [PHENTOLAMINE]
- IC50 (Thromboxane-A synthase): Not Active
- IC50 [1]: Not Active
- IC50 (Nitric oxide synthase 1): Not Active
- IC50 [2]: Not Active

Compound: CNNCc1ccc(C(=O)NC(C)C)cc1 [PROCARBAZINE]
- IC50 (Thromboxane-A synthase): Not Active
- IC50 [1]: Not Active
- IC50 (Nitric oxide synthase 1): Not Active
- IC50 [2]: Not Active

Compound: CN(C)CCCN1c2ccccc2Sc2ccccc21 [PROMAZINE]
- IC50 (Thromboxane-A synthase): Not Active
- IC50 [1]: Not Active
- IC50 (Nitric oxide synthase 1): Not Active
- IC50 [2]: Not Active

Compound: CC(O)CO (configuration not stated) [PROPYLENE GLYCOL]
- IC50 (Thromboxane-A synthase): Not Active
- IC50 [1]: Not Active
- IC50 (Nitric oxide synthase 1): Not Active
- IC50 [2]: Not Active

Compound: CADMIUM ACETATE
- IC50 (Thromboxane-A synthase): Not Active
- Ki (Thromboxane-A synthase): Not Active
- IC50 [1]: Not Active
- Ki [1]: Not Active
- IC50 (Nitric oxide synthase 1): Not Active
- Ki (Nitric oxide synthase 1): Not Active
- IC50 [2]: Not Active
- Ki [2]: Not Active

Compound: LEAD (II) ACETATE
- IC50 (Thromboxane-A synthase): Not Active
- Ki (Thromboxane-A synthase): Not Active
- IC50 [1]: Not Active
- Ki [1]: Not Active
- IC50 (Nitric oxide synthase 1): Not Active
- Ki (Nitric oxide synthase 1): Not Active
- IC50 [2]: Not Active
- Ki [2]: Not Active

Compound: LIPOPOLYSACCHARIDE E. COLI O55:B5
- IC50 (Thromboxane-A synthase): Not Active
- Ki (Thromboxane-A synthase): Not Active
- IC50 [1]: Not Active
- Ki [1]: Not Active
- IC50 (Nitric oxide synthase 1): Not Active
- Ki (Nitric oxide synthase 1): Not Active
- IC50 [2]: Not Active
- Ki [2]: Not Active
